Experimental data: ChEMBL document CHEMBL4376887, “Rose Bengal-Amphiphilic Peptide Conjugate for Enhanced Photodynamic Therapy of Malignant Melanoma” (J Med Chem, 2020)
The source made the active and inactive calls. No cut-off for these calls is given here.

How the values were obtained:
[1] = tested on: B16-F10-luc2; test: Induction of apoptosis in mouse B16-F10-luc2 cells assessed as increase in late apoptotic cells at 1 uM preincubated for 3 hrs followed by compound washout and subsequent 22.8 J cm'-2 light irradiation for 60 secs measured after 21 hrs by Alexa Fluor 488 Annexin V/Dead Cell staining based flow cytometry; format: functional
[2] = tested on: PANC-1; test: Cytotoxicity against human PANC1 cells assessed as reduction in cell viability up to 1 uM incubated for 24 hrs under dark condition by MTT assay; format: cell-based; conditions: panc-1, 24 h
[3] = tested on: B16-F10-luc2; test: Induction of reactive oxygen species generation in mouse B16-F10-luc2 cells at 10 uM preincubated for 3 hrs followed by compound washout prior to […] addition for 1 hr and subsequent 22.8 J cm'-2 light irradiation for 60 secs post media washout and measured immediately by fluorescence assay; format: functional, cell-based
[4] = Drug uptake in mouse B16-F10-luc2 cells assessed as increase in fluorescence intensity at 10 uM measured after 3 hrs by confocal laser scanning microscopic analysis relative to RB; format: ADME, cell-based; conditions: b16-f10-luc2, 3 h
[5] = tested on: B16-F10-luc2; test: Induction of apoptosis in mouse B16-F10-luc2 cells assessed as increase in necrotic cells at 1 uM preincubated for 3 hrs followed by compound washout and subsequent 22.8 J cm'-2 light irradiation for 60 secs measured after 21 hrs by Alexa Fluor 488 Annexin V/Dead Cell staining based flow cytometry; format: functional
[6] = tested on: B16-F10-luc2; test: Photo-activated cytotoxicity against mouse B16-F10-luc2 cells assessed as reduction in cell viability preincubated for 3 hrs followed by compound washout and subsequent 22.8 J cm'-2 light irradiation for 60 secs measured after 21 hrs by MTT assay; format: functional, cell-based; conditions: B16-F10-luc2, light or radiation study
[7] = tested on: B16-F10-luc2; test: Induction of apoptosis in mouse B16-F10-luc2 cells assessed as increase in necrotic cells at 1 uM measured after 24 hrs by Alexa Fluor 488 Annexin V/Dead Cell staining based flow cytometry; format: functional
[8] = tested on: B16-F10-luc2; test: Antitumor activity against mouse B16-F10-luc2 cells implanted in SCID mouse assessed as tumor growth at 100 uM, iv administered 30 mins prior to 68.4 J cm'-2 light irradiation for 3 mins on day 1, 2, 7, and 9 measured for 12 days relative to control; format: functional
[9] = tested on: MCF7; test: Cytotoxicity against human MCF7 cells assessed as reduction in cell viability up to 1 uM incubated for 24 hrs under dark condition by MTT assay; format: cell-based; conditions: mcf7, 24 h
[10] = Acute toxicity in mouse B16-F10-luc2 cells implanted SCID mouse at 100 uM, iv administered 30 mins prior to 68.4 J cm'-2 light irradiation for 3 mins on day 1, 2, 7, and 9; format: organism-based; conditions: in vivo, 0.05 h
[11] = tested on: B16-F10-luc2; test: Antitumor activity against mouse B16-F10-luc2 cells implanted in SCID mouse assessed as reduction in tumor growth at 100 uM, iv administered 30 mins prior to 68.4 J cm'-2 light irradiation for 3 mins on day 1, 2, 7, and 9 measured on day 13; format: functional, organism-based
[12] = tested on: B16-F10-luc2; test: Induction of apoptosis in mouse B16-F10-luc2 cells assessed as increase in late apoptotic cells at 1 uM measured after 24 hrs by Alexa Fluor 488 Annexin V/Dead Cell staining based flow cytometry; format: functional
[13] = tested on: B16-F10-luc2; test: Photo-activated cytotoxicity against mouse B16-F10-luc2 cells assessed as cell viability at 1 uM preincubated for 3 hrs followed by compound washout and subsequent 22.8 J cm'-2 light irradiation for 60 secs measured after 21 hrs by MTT assay relative to control; format: functional; conditions: B16-F10-luc2, light or radiation study, read-out: Activity
[14] = Cytotoxicity against mouse B16-F10-luc2 cells assessed as cell viability at 1 uM incubated for 24 hrs under dark condition by MTT assay relative to control; format: cell-based; conditions: read-out: Activity
[15] = tested on: B16-F10-luc2; test: Induction of apoptosis in mouse B16-F10-luc2 cells assessed as decrease in viable cells at 1 uM measured after 24 hrs by Alexa Fluor 488 Annexin V/Dead Cell staining based flow cytometry; format: functional
[16] = tested on: B16-F10-luc2; test: Induction of apoptosis in mouse B16-F10-luc2 cells assessed as decrease in viable cells at 1 uM preincubated for 3 hrs followed by compound washout and subsequent 22.8 J cm'-2 light irradiation for 60 secs measured after 21 hrs by Alexa Fluor 488 Annexin V/Dead Cell staining based flow cytometry; format: functional
[17] = Induction of ROS generation in ethanol assessed as reduction in DPBF absorbance at 410 nm at 1 uM preincubated for 10 mins followed by 342 J cm'-2 light irradiation for 15 mins and measured at 5 mins interval for 15 mins by spectrometric method; format: functional
[18] = Induction of singlet oxygen generation in ethanol at 1 uM preincubated for 10 mins followed by 342 J cm'-2 light irradiation for 15 mins and measured at 5 mins interval for 15 mins by spectrometric method; format: functional
[19] = tested on: PANC-1; test: Photo-activated cytotoxicity against human PANC1 cells assessed as reduction in cell viability up to 1 uM preincubated for 3 hrs followed by compound washout and subsequent 22.8 J cm'-2 light irradiation for 60 secs measured after 21 hrs by MTT assay; format: functional, cell-based
[20] = tested on: B16-F10-luc2; test: Antitumor activity against mouse B16-F10-luc2 cells implanted in SCID mouse assessed as tumor growth at 100 uM, iv administered on day 1, 2, 7, and 9 measured for 12 days relative to control; format: functional
[21] = Toxicity in mouse B16-F10-luc2 cells implanted SCID mouse assessed as effect on body weight at 100 uM, iv administered 30 mins prior to 68.4 J cm'-2 light irradiation for 3 mins on day 1, 2, 7, and 9; format: organism-based; conditions: in vivo, 0.05 h
[22] = tested on: HeLa; test: Photo-activated cytotoxicity against human HeLa cells assessed as reduction in cell viability preincubated for 3 hrs followed by compound washout and subsequent 22.8 J cm'-2 light irradiation for 60 secs measured after 21 hrs by MTT assay; format: functional, cell-based; conditions: light or radiation study
[23] = tested on: MCF7; test: Photo-activated cytotoxicity against human MCF7 cells assessed as reduction in cell viability up to 1 uM preincubated for 3 hrs followed by compound washout and subsequent 22.8 J cm'-2 light irradiation for 60 secs measured after 21 hrs by MTT assay; format: functional, cell-based
[24] = tested on: B16-F10-luc2; test: Antitumor activity against mouse B16-F10-luc2 cells implanted in SCID mouse assessed as tumor volume at 100 uM, iv administered 30 mins prior to 68.4 J cm'-2 light irradiation for 3 mins on day 1, 2, 7, and 9 measured for 12 days relative to control; format: functional
[25] = tested on: HeLa; test: Photo-activated cytotoxicity against human HeLa cells assessed as reduction in cell viability preincubated for 4 hrs followed by compound washout and subsequent 3.3 mW cm'-2 light irradiation for 24 mins measured after 48 hrs by MTT assay; format: functional, cell-based; conditions: light or radiation study

With `CC(C)C[C@H](NC(=O)[C@H](CCCCN)NC(=O)[C@H](C)NC(=O)[C@H](CC(C)C)NC(=O)[C@H](CCCCN)NC(=O)[C@H](CCCCN)NC(=O)[C@H](C)NC(=O)[C@H](CC(C)C)NC(=O)[C@H](CCCCN)NC(=O)[C@H](C)NC(=O)[C@H](CC(C)C)NC(=O)[C@H](CCCCN)NC(=O)[C@H](CS)NC(=O)CCCCCCCOC(=O)c1c(Cl)c(Cl)c(Cl)c(Cl)c1-c1c2cc(I)c(=O)c(I)c-2oc2c(I)c(O)c(I)cc12)C(=O)N[C@@H](C)C(=O)N[C@@H](CCCCN)C(N)=O` as the compound, how does the Activity [1] read?
Its Activity is “Active”.

What about the Activity [2] of the same compound?
The Activity was “Active”.

What about the Activity [3] of the same compound?
Its Activity is “Active”.

What about the Drug uptake [4] of the same compound?
The Drug uptake was 69%.

And the Activity [5]?
Its Activity is “Active”.

What about the IC50 [6] of the same compound?
Its IC50 is 310 nM.

And the Activity [7]?
The Activity was “Active”.

And the Activity [8]?
The Activity was 23%.

What about the Activity [9] of the same compound?
Its Activity is “Active”.

And the Activity [10]?
The Activity was “Non-Toxic”.

And the Activity [11]?
The Activity was “Active”.

What about the Activity [12] of the same compound?
The Activity was “Active”.

What about the viability at 1 µM [13] of the same compound?
The viability at 1 µM was 6%.

And the viability at 24 h, 1 µM [14]?
Its viability at 24 h, 1 µM is 69%.

And the Activity [15]?
Its Activity is “Active”.

What about the Activity [16] of the same compound?
Its Activity is “Active”.

What about the Activity [17] of the same compound?
Its Activity is “Active”.

And the Activity [18]?
Its Activity is “Active”.

What about the Activity [19] of the same compound?
Its Activity is “Active”.

And the Activity [20]?
The Activity was 573%.

And the Activity [21]?
Its Activity is “Non-Toxic”.

What about the IC50 [22] of the same compound?
The IC50 was 290 nM.

What about the Activity [23] of the same compound?
Its Activity is “Active”.

For `O=C(O)CCCCCCCOC(=O)c1c(Cl)c(Cl)c(Cl)c(Cl)c1-c1c2cc(I)c(=O)c(I)c-2oc2c(I)c(O)c(I)cc12`, which viability at 1 µM [13] is on record?
Its viability at 1 µM is 62%.

And the Activity [17]?
The Activity was “Active”.

What about the Activity [18] of the same compound?
Its Activity is “Active”.

For `C=Cc1c(C)c2cc3[nH]c(cc4nc(cc5nc(cc1[nH]2)C(C)=C5CCC(=O)N[C@@H](CS)C(=O)N[C@@H](CCCCN)C(=O)N[C@@H](CC(C)C)C(=O)N[C@@H](C)C(=O)N[C@@H](CCCCN)C(=O)N[C@@H](CC(C)C)C(=O)N[C@@H](C)C(=O)N[C@@H](CCCCN)C(=O)N[C@@H](CCCCN)C(=O)N[C@@H](CC(C)C)C(=O)N[C@@H](C)C(=O)N[C@@H](CCCCN)C(=O)N[C@@H](CC(C)C)C(=O)N[C@@H](C)C(=O)N[C@@H](CCCCN)C(N)=O)C(CCC(=O)O)=C4C)c(C)c3C=C`, which viability at 1 µM [13] is on record?
Its viability at 1 µM is 38%.

What about the viability at 24 h, 1 µM [14] of the same compound?
The viability at 24 h, 1 µM was 46%.

Which results are given for `O=C([O-])c1c(Cl)c(Cl)c(Cl)c(Cl)c1-c1c2cc(I)c(=O)c(I)c-2oc2c(I)c([O-])c(I)cc12.[Na+].[Na+]` [ROSE BENGAL SODIUM]?
Activity [2]: Active; Activity [24]: 502%; Activity [9]: Active; Activity [11]: Active; viability at 1 µM [13]: 69%; Activity [17]: Active

Which IC50 [25] does the source give for `C=Cc1c(C)c2cc3[nH]c(cc4nc(cc5nc(cc1[nH]2)C(C)=C5CCC(=O)O)C(CCC(=O)O)=C4C)c(C)c3C=C` here?
Its IC50 is 1610 nM.
